Source: patent EP0303437A2, “Platinum triamine compounds containing nucleotides or nucleosides as antitumor agents” (ENGELHARD CORPORATION, priority 1987, dated 1989)
“And” between values parts separate entries of the source, which are not always exact repeats. Equal entries are not always repeated.

Legend:
[1] = system: Sarcoma 180 Ascites; assay: Sarcoma 180 Ascites (S180a) antitumor screening; assay type: in vivo, Female CFW mice; conditions: for %ILS: ILS ≧ 50% indicates activity; for Surv: survivors per group of 6 mice at twice the MST of controls
Description: (§1) Each of the compounds was evaluated in the Sarcoma 180 Ascites screen and at least some of the compounds were also evaluated in the L1210 Leukemia tumor models.
(§2) L1210 screening was conducted according to a published method. […] Female CDF₁ mice (16 - 22 g) were implanted with 1 x 10⁶ tumor cells ip on day zero. Compounds were administered in 0.5 mL water ip on day one. Groups of 6 mice were used for each dose. A control group of mice received only tumor and 0.5 mL water. A positive control group received tumor and 8 mg/kg cisplatin in 0.5 mL 0.15 M NaCl. The test was terminated after three times the mean survival time (MST) of the control group, surviving mice were counted as dying on that day. Activity was determined based on the percent increase in MST of test mice over controls (%ILS). […] The tumor line was maintained through weekly transfer of 5 x 10⁴ cells in DBA/2 mice.
Female CFW mice (18 - 25 g) were implanted with 2 x 10⁶ cells ip on day zero. Compounds were administered in 0.5 mL water ip on day one. Groups of 6 mice were used for each test dose as well as controls as defined above. The test was run for twice the MST of the control group, with survivors counted as dying on that day. An ILS of ≧ 50% indicates activity. The tumor line was maintained through weekly transfer of 4 x 10⁶ cells in CFW mice.

[2] = system: L1210 Leukemia; assay: L1210 Leukemia antitumor screening; assay type: in vivo, Female CDF₁ mice; conditions: for %ILS: ILS ≧ 25% represents activity; for Surv: survivors per group of 6 mice at three times the MST of controls
Description: as §1, §2

[3] = Dose 10 mg/kg ip in water on day one
[4] = Dose 20 mg/kg ip in water on day one
[5] = Dose 40 mg/kg ip in water on day one
[6] = Dose 80 mg/kg ip in water on day one
[7] = Dose 160 mg/kg ip in water on day one
[8] = Dose 320 mg/kg ip in water on day one
[9] = 8 mg/kg cisplatin in 0.5 mL 0.15 M NaCl, survivors per 6 mice, one value per experiment

Molecule | %ILS [1, 3] | Surv ([1]; Dose 10 mg/kg ip) | %ILS [1, 4] | Surv ([1]; Dose 20 mg/kg ip) | %ILS [1, 5] | Surv ([1]; Dose 40 mg/kg ip) | %ILS [1, 6] | Surv ([1]; Dose 80 mg/kg ip) | %ILS [1, 7] | Surv ([1]; Dose 160 mg/kg ip) | %ILS [1, 8] | Surv ([1]; Dose 320 mg/kg ip) | %ILS [2, 3] | Surv ([2]; Dose 10 mg/kg ip) | %ILS [2, 4] | Surv ([2]; Dose 20 mg/kg ip) | %ILS [2, 5] | Surv ([2]; Dose 40 mg/kg ip) | %ILS [2, 6] | Surv ([2]; Dose 80 mg/kg ip) | also measured
N.N.Nc1ccn(C2OC(CO)C(O)C2O)c(=O)n1.O=[N+]([O-])[O-].[Cl-].[Pt+2] [cis-[Pt(NH₃)₂(1-β-D-arabinofuranosylcytosine)Cl]NO₃] | -12% | 0/6 | -3% | 0/6 | 2% | 0/6 | 42% | 2/6 | 51% | 1/6 | 45% | 2/6 | -22% | 0/6 | -8% | 0/6 | 0% | 0/6 | 6% | 0/6 | %ILS [2, 7]: 10%; Surv ([2]; Dose 160 mg/kg ip): 0/6; %ILS [2, 8]: 10%; Surv ([2]; Dose 320 mg/kg ip): 0/6
N.N.Nc1ccn(C2CC(O)C(CO)O2)c(=O)n1.[Cl-].[Cl-].[Pt+2] (stereo not drawn) [cis-[Pt(NH₃)₂(2′-deoxycytidine)Cl]Cl] | 10% | 0/6 | 34% | 0/6 | 61% | 2/6 | 85% | 3/6 | 76% | 4/6 | 51% | 1/6 |  |  |  |  |  |  |  |  | 
cis-[Pt(NH₃)₂Cl₂] [Positive Control, reference compound] |  |  |  |  |  |  |  |  |  |  |  |  |  |  |  |  |  |  |  |  | Positive Control %ILS ([1]; 8 mg/kg cisplatin in 0.5 mL 0.15 M NaCl, one value per experiment, run with the compound of that table section): 86% and 54% and 82% and 59%; Positive Control Surv [1, 9]: 4/6 and 0/6 and 3/6; Positive Control Surv [2, 9]: 0/6
Nc1ccn(C2OC(CO)C(O)C2O)c(=O)[n+]1[Pt]([NH2])([NH2])[Cl].O=[N+]([O-])[O-] (stereo not drawn) [cis-[Pt(NH₃)₂(cytidine)Cl]NO₃] | 6% | 0/6 | 1% | 0/6 | -4% | 0/6 | -7% | 0/6 | 8% | 0/6 | 30% | 0/6 |  |  |  |  |  |  |  |  | 
cis-[Pt(NH₃)₂(2′-deoxycytidine)Cl]NO₃ |  |  |  |  |  |  |  |  |  |  |  |  | 12% | 0/6 | 23% | 0/6 | 26% | 0/6 | 44% | 0/6 | %ILS [2, 7]: 41%; Surv ([2]; Dose 160 mg/kg ip): 0/6; %ILS [2, 8]: 59%; Surv ([2]; Dose 320 mg/kg ip): 0/6
cis-[Pt(NH₃)₂(2′-deoxyguanosine)Cl]Cl | 2% | 0/6 | 15% | 1/6 | 76% | 4/6 | 88% | 4/6 | 85% | 4/6 | 6% | 2/6 |  |  |  |  |  |  |  |  | 
Nc1nc2c(c(=O)[nH]1)[n+]([Pt]([NH2])([NH2])[Cl])cn2C1OC(CO)C(O)C1O.O=[N+]([O-])[O-] (stereo not drawn) [cis-[Pt(NH₃)₂(guanosine)Cl]NO₃] | 2% | 0/6 | 15% | 1/6 | 23% | 0/6 | 16% | 1/6 | 79% | 3/6 | -45% | 1/6 | -24% | 0/6 | -4% | 0/6 | -4% | 0/6 | 2% | 0/6 | %ILS [2, 7]: 8%; Surv ([2]; Dose 160 mg/kg ip): 0/6; %ILS [2, 8]: -26%; Surv ([2]; Dose 320 mg/kg ip): 0/6
